Peptide text beside a SMILES is read from it.
Tests used:
[1] = Solubility found for Lys-Xxx dipeptides; settings: as hydrochloride or as acetate (footnotes 6, 7)
[2] = test system: antibody producing Chinese Hamster Ovary (CHO) cells (Subclone DG44); test: Experiment 3: cell growth (VCD) in TC-42 media, L-valine or L-isoleucine replaced by lysyl dipeptides; format: cell-based; parameters: Viable cell densities (VCD) / maximum cell densities (max VCD): unit: 10^6 cells/ml; settings: for maximum cell densities (max VCD) / Viable cell densities (VCD): TC-42 media of table 6; for growth curve and maximum cell density compared with reference medium (FIG. 3): equimolar amounts
Source text: (§1) The influence of the L-lysine dipeptides on the growth of antibody producing Chinese Hamster Ovary (CHO) cells (Subclone DG44; Life Technologies Cooperation, Carslbad, USA) in comparison to media containing either the corresponding free amino acids or the corresponding L-alanine dipeptides was investigated. For this purpose, the cells were cultivated in a TC-42 media produced by Xell AG, Bielefeld, Germany in which the amino acids provided within the experiments by dipeptides were lacking. The concentrations of these amino acids were adjusted in such a way that, taking into account a complete hydrolysis of the dipeptides into the amino acids, the concentration of all amino acids were the same in all media tested within this experiment.
(§2) Starting from a preparatory culture an initial viable cell density (VCD) of 0.3·10^6 cells/ml was adjusted in shaking flasks by adding the test media. After 2-4 days a part of the cell culture was transferred into a new shaking flask and an initial viable cell density (VCD) of 0.3.10^6 cells/ml was adjusted by adding new test media. This was done two times and then the cell growth was followed by measuring the viable cell density (VCD) for up to 24 days.
Experiment 3: Comparison of the Cell Growths obtained with TC-42 media in which L-valine and L-isoleucine, respectively, are replaced by L-lysyl-L-valine and L-lysyl-L-isoleucine, respectively.
For this experiment a TC-42 media produced by Xell AG, Bielefeld, Germany in which L-lysine, L-valine and L-isoleucine were lacking was used. These amino acids and the dipeptides L-lysyl-L-valine and L-lysyl-L-isoleucine, respectively, were then added to the test media in the concentration listed in table 6.

[3] = cited from earlier work; for solubility: prior art values, background; for Solubility Xxx: free amino acid, CRC Handbook of Chemistry and Physics
[4] = test system: antibody producing Chinese Hamster Ovary (CHO) cells (Subclone DG44); test: Experiment 2: cell growth (VCD) in TC-42 media, L-tyrosine replaced by dipeptides; format: cell-based; parameters: key to Viable cell densities (VCD) / maximum cell densities (max VCD): 10^6 cells/ml
Source text: as §1, §2
These amino acids and the dipeptides L-alanyl-L-tyrosine dihydrate and L-lysyl-L-tyrosine acetate, respectively, were then added to the test media in the concentration listed in table 4.

[5] = test system: antibody producing Chinese Hamster Ovary (CHO) cells (Subclone DG44); test: Experiment 1: cell growth (VCD) in TC-42 media, cysteine/cystine or leucine replaced by dipeptides; format: cell-based; parameters: Viable cell densities (VCD) / maximum cell densities (max. VCD): unit not given here
Source text: as §1, with “experiment. […] Experiment 1: Comparison of the Cell Growths Obtained with TC-42 media in which L-cysteine/L-cystine is replaced by bis-L-alanyl-L-cystine, bis-L-prolyl-L-cystine or bis-L-lysyl-L-cystine and L-leucine is replaced by […] For this experiment a TC-42 media produced by Xell AG, Bielefeld, Germany in which […]-cystine and L-leucine were deliberately left out of the initial formulation. […] [table]” for “experiment.”

## NCCCC[C@H](N)C(=O)N[C@@H](Cc1ccc(O)cc1)C(=O)O [Lys-Tyr, L-Lysyl-L-tyrosine acetate]
[1]
  Solubility Lys-Xxx found: >330 ^7) g/1000 g solution

## CC[C@H](C)[C@H](NC(=O)[C@@H](N)CCCCN)C(=O)O [Lys-Ile, L-Lysyl-L-isoleucine]
[2]
  maximum cell densities (max VCD): 10.67
  growth curve and maximum cell density compared with reference medium (FIG. 3): a slower growth and a lower maximum cell density
[2]; Time 0.0
  Viable cell densities (VCD): 0.44
[2]; Time 2.8
  Viable cell densities (VCD): 1.78
[2]; Time 3.0
  Viable cell densities (VCD): 0.48
[2]; Time 6.8
  Viable cell densities (VCD): 3.36
[2]; Time 6.9
  Viable cell densities (VCD): 0.39
[2]; Time 7.9
  Viable cell densities (VCD): 0.60
[2]; Time 8.8
  Viable cell densities (VCD): 1.04
[2]; Time 9.8
  Viable cell densities (VCD): 1.73
[2]; Time 10.8
  Viable cell densities (VCD): 2.73
[2]; Time 11.8
  Viable cell densities (VCD): 4.62
[2]; Time 12.9
  Viable cell densities (VCD): 5.77
[2]; Time 13.8
  Viable cell densities (VCD): 7.19
[2]; Time 14.8
  Viable cell densities (VCD): 9.27
[2]; Time 15.9
  Viable cell densities (VCD): 9.45
[2]; Time 16.9
  Viable cell densities (VCD): 9.40
[2]; Time 17.9
  Viable cell densities (VCD): 10.56
[2]; Time 18.8
  Viable cell densities (VCD): 10.67
[2]; Time 19.8
  Viable cell densities (VCD): 9.18
[2]; Time 21.0
  Viable cell densities (VCD): 8.77
[1]
  Solubility Lys-Xxx found: >500 ^7) g/1000 g solution

## L-Alanyl-L-tyrosine × 2H2O [Ala-Tyr]
[3]; Degussa product brochure, cystine value WO 2011/133902
  Solubility Ala-Xxx: 15.3 g/1000 g solution
[3]
  solubility: 8.7 g/ltr
[4]; TC-42 media of table 4
  maximum cell densities (max VCD): 12.44
[4]; Time [d] 0.0, TC-42 media of table 4
  Viable cell densities (VCD): 0.38
[4]; Time [d] 0.7, TC-42 media of table 4
  Viable cell densities (VCD): 0.51
[4]; Time [d] 1.7, TC-42 media of table 4
  Viable cell densities (VCD): 1.22
[4]; Time [d] 2.7, first entry, TC-42 media of table 4
  Viable cell densities (VCD): 2.22
[4]; Time [d] 2.7, second entry (after transfer into new flask), TC-42 media of table 4
  Viable cell densities (VCD): 0.35
[4]; Time [d] 4.0, TC-42 media of table 4
  Viable cell densities (VCD): 0.77
[4]; Time [d] 4.9, TC-42 media of table 4
  Viable cell densities (VCD): 1.59
[4]; Time [d] 5.7, TC-42 media of table 4
  Viable cell densities (VCD): 1.93
[4]; Time [d] 6.7, first entry, TC-42 media of table 4
  Viable cell densities (VCD): 2.82
[4]; Time [d] 6.7, second entry (after transfer into new flask), TC-42 media of table 4
  Viable cell densities (VCD): 0.31
[4]; Time [d] 7.7, TC-42 media of table 4
  Viable cell densities (VCD): 0.48
[4]; Time [d] 8.7, TC-42 media of table 4
  Viable cell densities (VCD): 1.17
[4]; Time [d] 9.7, TC-42 media of table 4
  Viable cell densities (VCD): 1.92
[4]; Time [d] 11.0, TC-42 media of table 4
  Viable cell densities (VCD): 4.11
[4]; Time [d] 11.8, TC-42 media of table 4
  Viable cell densities (VCD): 6.12
[4]; Time [d] 12.7, TC-42 media of table 4
  Viable cell densities (VCD): 8.29
[4]; Time [d] 13.7, TC-42 media of table 4
  Viable cell densities (VCD): 10.49
[4]; Time [d] 14.7, TC-42 media of table 4
  Viable cell densities (VCD): 12.44
[4]; Time [d] 15.7, TC-42 media of table 4
  Viable cell densities (VCD): 11.34
[4]; Time [d] 16.7, TC-42 media of table 4
  Viable cell densities (VCD): 12.42
[4]; Time [d] 17.9, TC-42 media of table 4
  Viable cell densities (VCD): 11.06
[4]; Time [d] 18.9, TC-42 media of table 4
  Viable cell densities (VCD): 11.31
[4]; Time [d] 19.7, TC-42 media of table 4
  Viable cell densities (VCD): 11.20
[4]; Time [d] 20.7, TC-42 media of table 4
  Viable cell densities (VCD): 11.13
[4]; Time [d] 21.7, TC-42 media of table 4
  Viable cell densities (VCD): 11.24
[4]; equimolar amounts of tyrosine
  growth curves compared with reference medium (FIG. 2): no significant difference
  maximum cell density compared with reference medium: slightly higher values

## CC[C@H](C)[C@H](N)C(=O)O [L-Isoleucine]
[3]
  Solubility Xxx: 39.6 g/1000 g solution

## CC(C)[C@H](NC(=O)[C@@H](N)CCCCN)C(=O)O [Lys-Val, L-Lysyl-L-valine] (H-Lys-Val-OH)
[2]
  maximum cell densities (max VCD): 17.25
  growth curve and maximum cell density compared with reference medium (FIG. 3): almost matching those of the reference medium
[2]; Time 0.0
  Viable cell densities (VCD): 0.43
[2]; Time 2.8
  Viable cell densities (VCD): 2.04
[2]; Time 3.0
  Viable cell densities (VCD): 0.50
[2]; Time 6.8
  Viable cell densities (VCD): 4.37
[2]; Time 6.9
  Viable cell densities (VCD): 0.39
[2]; Time 7.9
  Viable cell densities (VCD): 0.61
[2]; Time 8.8
  Viable cell densities (VCD): 1.15
[2]; Time 9.8
  Viable cell densities (VCD): 2.07
[2]; Time 10.8
  Viable cell densities (VCD): 3.35
[2]; Time 11.8
  Viable cell densities (VCD): 5.79
[2]; Time 12.9
  Viable cell densities (VCD): 8.34
[2]; Time 13.8
  Viable cell densities (VCD): 11.08
[2]; Time 14.8
  Viable cell densities (VCD): 15.45
[2]; Time 15.9
  Viable cell densities (VCD): 16.84
[2]; Time 16.9
  Viable cell densities (VCD): 17.25
[2]; Time 17.9
  Viable cell densities (VCD): 16.27
[2]; Time 18.8
  Viable cell densities (VCD): 14.62
[1]
  Solubility Lys-Xxx found: >400 ^6) g/1000 g solution

## CC(C)[C@H](N)C(=O)O [L-Valine]
[3]
  Solubility Xxx: 81.3 g/1000 g solution

## Bis-L-prolyl-L-cystine [Pro2-Cyss, reference compound]
[5]; TC-42 media of table 2
  maximum cell densities (max. VCD): 0.79
[5]; Time 0.0, TC-42 media of table 2
  Viable cell densities (VCD): 0.31
[5]; Time 0.7, TC-42 media of table 2
  Viable cell densities (VCD): 0.37
[5]; Time 2.0, TC-42 media of table 2
  Viable cell densities (VCD): 0.32
[5]; Time 2.7, TC-42 media of table 2
  Viable cell densities (VCD): 0.21
[5]; Time 3.6, TC-42 media of table 2
  Viable cell densities (VCD): 0.18
[5]; Time 3.7, TC-42 media of table 2
  Viable cell densities (VCD): 0.30
[5]; Time 4.7, TC-42 media of table 2
  Viable cell densities (VCD): 0.24
[5]; Time 5.8, TC-42 media of table 2
  Viable cell densities (VCD): 0.14
[5]; Time 6.7, TC-42 media of table 2
  Viable cell densities (VCD): 0.08
[5]; Time 6.8, TC-42 media of table 2
  Viable cell densities (VCD): 0.32
[5]; Time 7.8, TC-42 media of table 2
  Viable cell densities (VCD): 0.43
[5]; Time 8.7, TC-42 media of table 2
  Viable cell densities (VCD): 0.41
[5]; Time 9.7, TC-42 media of table 2
  Viable cell densities (VCD): 0.34
[5]; Time 10.6, TC-42 media of table 2
  Viable cell densities (VCD): 0.27
[5]; Time 11.6, TC-42 media of table 2
  Viable cell densities (VCD): 0.79
[5]; same molar amount of cysteine and cystine in the form of dipeptides
  cell growth performance compared with reference medium (FIG. 1): almost no growth

## CC(C)C[C@H](N)C(=O)O [L-Leucine]
[3]
  Solubility Xxx: 23.7 g/1000 g solution

## N[C@@H](CSSC[C@H](N)C(=O)O)C(=O)O [L-Cystine]
[3]
  Solubility Xxx: 0.1 g/1000 g solution
  solubility: 0.1 g/ltr

— US20190390161A1, “CULTURE MEDIUM COMPRISING OLIGOPEPTIDES” (Evonik Degussa GmbH, priority 2017, published 2019)
